Data on 40 molecules can be found in ChEMBL document CHEMBL4425196, “Synthesis of novel flavone derivatives possessing substituted benzamides and their biological evaluation against human cancer cells” (Bioorg Med Chem Lett, 2016).

Each structure is given as a SMILES string. Activity calls are given as the source filed them. The rule behind the calls is not given here.

Data set [1] has as its system HepG2. Put plainly: Growth inhibition of human HepG2 cells by MTT assay. The class given is functional. For orientation: Tetrazolium assays rely on reduction of a dye to a coloured formazan, in cell work by metabolically active cells.
The test system of data set [2] is MCF7. Put plainly: Growth inhibition of human MCF7 cells by MTT assay. The class given is functional.
The test system of data set [3] is MCF7. Put plainly: Growth inhibition of human MCF7 cells at 10 uM by MTT assay relative to control. The class given is functional. The following applies: for inhibition of growth at 10 µM: read-out: GI.
The subject of data set [4] is HepG2. Put plainly: Growth inhibition of human HepG2 cells at 10 uM by MTT assay relative to control. The class given is functional. The note with it: for inhibition of growth at 10 µM: read-out: GI.
The nature of data set [5]: Selectivity index, ratio of GI50 for human L-132 cells to GI50 for human HepG2 cells.
Data set [6] in a line: Growth inhibition of human L-132 cells by MTT assay. The class given is cell-based, L132.
The nature of data set [7]: Selectivity index, ratio of GI50 for human L-132 cells to GI50 for human MCF7 cells.

For orientation: GI50 means the concentration that inhibits growth by half. A lower GI50 goes with more potent growth inhibition.

`COc1cc2oc(-c3cccc(NC(=O)c4ccc(C#N)cc4)c3)cc(=O)c2c(OC)c1OC`: the GI50 amounted to 10.2 µM in data set [1] and 12.7 µM in data set [2]. Besides, the inhibition of growth at 10 µM in data set [3] and in data set [4] was > 50% throughout.
Turning to `COc1cc2oc(-c3ccc(NC(=O)c4ccccc4Br)cc3)cc(=O)c2c(O)c1OC`, the inhibition of growth at 10 µM in data set [3] and in data set [4] was < 50% throughout.
As to `COc1cc2oc(-c3cccc(NC(=O)c4ccc5c(c4)OCO5)c3)cc(=O)c2c(OC)c1OC`, the GI50 in data set [1] was 5.94 µM; in data set [2], 9.12 µM; in data set [6] it was 18 µM. For the same molecule, the RatioGI50 in data set [5] and in data set [7] was 2 - 3 each time. Further, the inhibition of growth at 10 µM in data set [3] and in data set [4] was > 50% in each case.
Take `COc1cc2oc(-c3ccc(NC(=O)c4ccc([N+](=O)[O-])cc4)cc3)cc(=O)c2c(O)c1OC`: the inhibition of growth at 10 µM in data set [3] was < 50%; in data set [4], 40%.
In the same order, the values of `COc1cc2oc(-c3ccc(NC(=O)c4ccc(C(F)(F)F)cc4)cc3)cc(=O)c2c(O)c1OC` are < 50% and < 50%.
On to `COc1cc2oc(-c3cccc(NC(=O)c4ccccc4)c3)cc(=O)c2c(OC)c1OC`, for which the 50% growth inhibitory concentration (GI50) in data set [1] was found to be 11.7 µM; in data set [2], 12.1 µM. The inhibition of growth at 10 µM in data set [3] and in data set [4] was > 50% each time.
For the molecule `COc1cc2oc(-c3ccc(NC(=O)c4ccc(Cl)cc4)cc3)cc(=O)c2c(O)c1OC`, the inhibition of growth at 10 µM in data set [3] and in data set [4] was < 50% in each case.
For the molecule `COc1cc2oc(-c3ccc(NC(=O)c4ccc(Br)cc4)cc3)cc(=O)c2c(O)c1OC`, the inhibition of growth at 10 µM in data set [3] and in data set [4] was < 50% in each case.
Consider `COc1cc2oc(-c3ccc(NC(=O)c4ccc(F)cc4)cc3)cc(=O)c2c(O)c1OC`, for which the inhibition of growth at 10 µM in data set [3] and in data set [4] was < 50% each time.
In the case of `COc1cc2oc(-c3cccc(NC(=O)c4ccc(C(F)(F)F)cc4)c3)cc(=O)c2c(OC)c1OC`, the GI50 in data set [1] was 61.1 µM; in data set [2], 10.6 µM. Moreover, the inhibition of growth at 10 µM in data set [3] and in data set [4] was > 50% in each case.
As for `COc1cccc(C(=O)Nc2cccc(-c3cc(=O)c4c(O)c(OC)c(OC)cc4o3)c2)c1`, the figures for the GI50 in data set [1] and in data set [2] were > 100 µM and 35.6 µM, respectively. Also, the inhibition of growth at 10 µM in data set [3] and in data set [4] was > 50% throughout.
As for `COc1cc2oc(-c3cccc(NC(=O)c4ccc(C)cc4)c3)cc(=O)c2c(OC)c1OC`, the results for the GI50 in data set [1] and in data set [2] were 9.75 µM and 8.32 µM, respectively. The inhibition of growth at 10 µM in data set [3] and in data set [4] was > 50% in each case.
In the case of `COc1cc2oc(-c3cccc(NC(=O)c4ccc(F)cc4)c3)cc(=O)c2c(OC)c1OC`, the GI50 came out at 47.2 µM in data set [1] and 14.7 µM in data set [2]. Further, the inhibition of growth at 10 µM in data set [3] and in data set [4] was > 50% in each case.
As to `COc1ccccc1C(=O)Nc1ccc(-c2cc(=O)c3c(O)c(OC)c(OC)cc3o2)cc1`, the inhibition of growth at 10 µM in data set [3] and in data set [4] was < 50% throughout.
`COc1ccccc1C(=O)Nc1cccc(-c2cc(=O)c3c(O)c(OC)c(OC)cc3o2)c1`: the GI50 in data set [1] was > 100 µM; in data set [2], 1.83 µM. In addition, the inhibition of growth at 10 µM in data set [3] and in data set [4] was > 50% throughout.
Regarding `COc1cc2oc(-c3cccc(NC(=O)c4ccc(Cl)cc4)c3)cc(=O)c2c(OC)c1OC`, the 50% growth inhibitory concentration (GI50) was 21.3 µM in data set [1] and 8.78 µM in data set [2]. Moreover, the inhibition of growth at 10 µM in data set [3] and in data set [4] was > 50% each time.
Consider `COc1cc2oc(-c3cccc(NC(=O)c4cccc(Br)c4)c3)cc(=O)c2c(OC)c1OC`, for which the GI50 in data set [1] was 10.9 µM; in data set [2], 6.34 µM. For the same molecule, the inhibition of growth at 10 µM in data set [3] and in data set [4] was > 50% throughout.
As to `COc1cc2oc(-c3cccc(NC(=O)c4cccc(Br)c4)c3)cc(=O)c2c(O)c1OC`, the GI50 in data set [1] is 44.8 µM; in data set [2], 6.94 µM. Also, the inhibition of growth at 10 µM in data set [3] and in data set [4] was > 50% each time.
In the case of `COc1ccc(C(=O)Nc2cccc(-c3cc(=O)c4c(O)c(OC)c(OC)cc4o3)c2)cc1`, the figures for the GI50 in data set [1] and in data set [2] were > 100 µM and 2.05 µM, respectively. For the same molecule, the inhibition of growth at 10 µM in data set [3] and in data set [4] was > 50% throughout.
Consider `COC(=O)c1ccc(C(=O)Nc2cccc(-c3cc(=O)c4c(OC)c(OC)c(OC)cc4o3)c2)cc1`, for which the GI50 in data set [1] was > 100 µM; in data set [2], 30.3 µM. Besides, the inhibition of growth at 10 µM in data set [3] and in data set [4] was > 50% each time.
For the molecule `COc1cc2oc(-c3cccc(NC(=O)c4ccc(Br)cc4)c3)cc(=O)c2c(OC)c1OC`, the GI50 in data set [1] was 8.85 µM; in data set [2], 9.65 µM. The inhibition of growth at 10 µM in data set [3] and in data set [4] was > 50% in each case.
As for `COc1cc2oc(-c3ccc(NC(=O)c4ccc5c(c4)OCO5)cc3)cc(=O)c2c(O)c1OC`, the inhibition of growth at 10 µM in data set [3] was < 50%; in data set [4], 40%.
On the same counts, the results for `COc1cc2oc(-c3ccc(NC(=O)c4ccccc4)cc3)cc(=O)c2c(O)c1OC` are < 50% and < 50%.
As for `COc1cccc(C(=O)Nc2cccc(-c3cc(=O)c4c(OC)c(OC)c(OC)cc4o3)c2)c1`, the GI50 in data set [1] turned out to be 7.06 µM; in data set [2] it was 7.67 µM; in data set [6], 20.9 µM. Moreover, the RatioGI50 in data set [5] and in data set [7] was 2 - 3 throughout. In addition, the inhibition of growth at 10 µM in data set [3] and in data set [4] was > 50% each time.
With `COc1cc2oc(-c3cccc(NC(=O)c4ccccc4Br)c3)cc(=O)c2c(OC)c1OC`, the GI50 in data set [1] is 23.1 µM; in data set [2], 55 µM. Also, the inhibition of growth at 10 µM in data set [3] and in data set [4] was > 50% each time.
Consider `O=c1cc(-c2ccccc2)oc2cc(O)c(O)c(O)c12`, for which the “growth inhibition (GI)” value in data set [3] and in data set [4] was “inactive” throughout.
In the case of `COc1cccc(C(=O)Nc2ccc(-c3cc(=O)c4c(O)c(OC)c(OC)cc4o3)cc2)c1`, the inhibition of growth at 10 µM in data set [3] and in data set [4] was < 50% in each case.
As for `COc1ccc(C(=O)Nc2ccc(-c3cc(=O)c4c(O)c(OC)c(OC)cc4o3)cc2)cc1`, the inhibition of growth at 10 µM in data set [3] and in data set [4] was < 50% each time.
`COc1ccccc1C(=O)Nc1cccc(-c2cc(=O)c3c(OC)c(OC)c(OC)cc3o2)c1`: the GI50 in data set [1] worked out at 7.53 µM; in data set [2] it was 15.3 µM. Also, the inhibition of growth at 10 µM in data set [3] and in data set [4] was > 50% in each case.
Turning to `COc1cc2oc(-c3cccc(NC(=O)c4ccc([N+](=O)[O-])cc4)c3)cc(=O)c2c(OC)c1OC`, the GI50 in data set [1] worked out at 18.8 µM; in data set [2] it was 20.1 µM. For the same molecule, the inhibition of growth at 10 µM in data set [3] and in data set [4] was > 50% throughout.
As for `COc1cc2oc(-c3ccccc3)cc(=O)c2c(OC)c1OC` [BAICALEIN TRIMETHYL ETHER], the figures for the GI50 in data set [1] and in data set [2] were 54 µM and 91.4 µM, respectively. In addition, the inhibition of growth at 10 µM in data set [3] and in data set [4] was > 50% in each case.
On to `COc1cc2oc(-c3cccc(NC(=O)c4ccc5c(c4)OCO5)c3)cc(=O)c2c(O)c1OC`, for which the concentration for 50% growth inhibition (GI50) in data set [1] was 45.1 µM; in data set [2], 8.47 µM. Further, the inhibition of growth at 10 µM in data set [3] and in data set [4] was > 50% each time.
Consider `COc1ccc(C(=O)Nc2cccc(-c3cc(=O)c4c(OC)c(OC)c(OC)cc4o3)c2)cc1`, for which the GI50 stood at 22.2 µM in data set [1] and 6.87 µM in data set [2]. For the same molecule, the inhibition of growth at 10 µM in data set [3] and in data set [4] was > 50% each time.
For the molecule `COc1cc2oc(-c3cccc(NC(=O)c4cccc(C#N)c4)c3)cc(=O)c2c(OC)c1OC`, the results for the GI50 in data set [1] and in data set [2] were 11.9 µM and 41.7 µM, respectively. The inhibition of growth at 10 µM in data set [3] and in data set [4] was > 50% throughout.
Regarding `COC(=O)c1ccc(C(=O)Nc2ccc(-c3cc(=O)c4c(O)c(OC)c(OC)cc4o3)cc2)cc1`, the inhibition of growth at 10 µM in data set [3] and in data set [4] was < 50% in each case.
Turning to `COc1cc2oc(-c3ccc(NC(=O)c4cccc(Br)c4)cc3)cc(=O)c2c(O)c1OC`, the inhibition of growth at 10 µM is < 50% in data set [3] and 40% in data set [4].
In the same order, the values of `COc1cc2oc(-c3ccc(NC(=O)c4ccc(C#N)cc4)cc3)cc(=O)c2c(O)c1OC` are < 50% and < 50%.
On the same counts, the results for `COc1cc2oc(-c3ccc(NC(=O)c4cccc(C#N)c4)cc3)cc(=O)c2c(O)c1OC` are < 50% and < 50%.
On to `COc1cc2oc(-c3ccc(NC(=O)c4ccc(C)cc4)cc3)cc(=O)c2c(O)c1OC`, for which the inhibition of growth at 10 µM in data set [3] and in data set [4] was < 50% in each case.
Consider `COc1cc([C@@H]2c3cc4c(cc3[C@@H](O[C@@H]3O[C@@H]5CO[C@@H](C)O[C@H]5[C@H](O)[C@H]3O)[C@H]3COC(=O)[C@H]23)OCO4)cc(OC)c1O` [ETOPOSIDE], for which the GI50 in data set [6] came out at 10.4 µM.
